Data from PubChem BioAssay (NCI).
Several values for one entry are separate records, joined by “and”; a condition that tells them apart may be missing. Equal entries are not always repeated.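 Step 1: Grow cells in 96-well plates. Step 2: Expose to compound for 48 hours at 5 concentrations. Step 3: Interpolate endpoints linearly; if unreached, use highest concentration. The concentration for 50% growth inhibition is given as GI50. TGI is the concentration that stops growth completely.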

Legend:
Assay in all cases: NCI tumour cell line growth inhibition, 48 h
K-562 leukemia = tested on: K-562 leukemia
UACC-62 melanoma = tested on: UACC-62 melanoma
HOP-62 NSCLC = tested on: HOP-62 NSCLC
UO-31 renal = tested on: UO-31 renal
MALME-3M melanoma = tested on: MALME-3M melanoma
KM12 colon = tested on: KM12 colon
SF-268 CNS = tested on: SF-268 CNS
DMS 114 small cell lung = tested on: DMS 114 small cell lung
HL-60(TB) leukemia = tested on: HL-60(TB) leukemia
M14 melanoma = tested on: M14 melanoma

Structure (SMILES) | TGI (K-562 leukemia) [µM] | TGI (UACC-62 melanoma) | TGI (HOP-62 NSCLC) | TGI (UO-31 renal) [µM] | TGI (MALME-3M melanoma) | TGI (KM12 colon) | TGI (SF-268 CNS) | TGI (DMS 114 small cell lung) | TGI (HL-60(TB) leukemia) [µM] | TGI (M14 melanoma) | GI50 (K-562 leukemia) [µM] | GI50 (HOP-62 NSCLC) [µM] | GI50 (UO-31 renal) [µM] | GI50 (MALME-3M melanoma) [µM] | GI50 (KM12 colon) [µM] | GI50 (SF-268 CNS) | GI50 (M14 melanoma) [µM] | GI50 (HL-60(TB) leukemia) [µM] | GI50 (UACC-62 melanoma) [µM] | GI50 (DMS 114 small cell lung) [µM]
CN(C)CC/C(=N\Nc1ccc(Cl)c(Cl)c1)c1ccccc1 | 4.68 | 3.88 µM | 6.09 µM | 3.25 | 13.3 µM | 3.92 µM | 3.48 µM | 3.86 µM | 5.8 | – | – | – | – | – | – | – | – | – | – | –
Cc1ccccc1-c1c(N)nc(N)nc1C(=O)Nc1nccs1 | > 100 | > 100 µM | > 100 µM | > 100 | > 100 µM | > 100 µM | > 100 µM | > 100 µM | > 100 | > 100 µM | – | – | – | – | – | – | – | – | – | –
Nc1nc(N)c(N=O)c(Nc2ccc(I)cc2)n1 | > 100 | 37.9 µM | 51.1 µM | > 100 | 78.3 µM | > 100 µM | 74.1 µM | 64.9 µM | 36.7 | 56.6 µM | – | – | – | – | – | – | – | – | – | –
CC(C)(C)OC(=O)NC1CCC[C@H]1O (stereo partly drawn) | > 100 | > 100 µM | > 100 µM | > 100 | > 100 µM | > 100 µM | > 100 µM | > 100 µM | – | > 100 µM | – | – | – | – | – | – | – | – | – | –
CC(=O)Nc1ccccc1-c1cnc2ccccc2n1 | > 100 | > 100 µM | > 100 µM | – | > 100 µM | > 100 µM | > 100 µM | > 100 µM | > 100 | > 100 µM | – | – | – | – | – | – | – | – | – | –
Nc1ncnc2c(C3OC(CO)C(O)C3O)[nH]nc12 (stereo not drawn) | 2.03 | 10.7 µM and 10.2 µM | – | – | 5.33 µM and 2.75 µM | 8.13 µM and 14.3 µM | 14 µM and 35.9 µM | 1.36 µM | 0.111 | 13.5 µM | 0.0459 | 0.123 | 0.0619 | 0.519 | 0.076 | 0.204 µM and 0.452 µM | 0.248 | 0.0142 | – | –
CC(=O)OC1C/C(C)=C/CCC(C)/C=C/C2(C)CCC(C(C)(C)O)C12 (stereo not drawn) | > 100 | > 100 µM | > 100 µM | > 100 | > 100 µM | > 100 µM | > 100 µM | > 100 µM | 55.5 | > 100 µM | – | – | – | – | – | – | – | – | – | –
NC(=S)NNC(=O)CCC(=O)Nc1ccc(Cl)cc1Cl | > 100 | > 100 µM | > 100 µM | > 100 | > 100 µM | > 100 µM | > 100 µM | > 100 µM | > 100 | > 100 µM | – | – | – | – | – | – | – | – | – | –
O=C1[C@@H]2C3SC(c4ccccc43)[C@@H]2C(=O)N1c1ccccc1 | > 100 | > 100 µM | > 100 µM | > 100 | > 100 µM | > 100 µM | > 100 µM | > 100 µM | > 100 | > 100 µM | – | – | – | – | – | – | – | – | – | –
CC(=O)C1C(=O)C(=O)N(c2ccccc2N2C(=O)C(=O)C(C(C)=O)C2=O)C1=O (stereo not drawn) | > 100 | > 100 µM | > 100 µM | > 100 | > 100 µM | > 100 µM | > 100 µM | > 100 µM | > 100 | > 100 µM | – | – | – | – | – | – | – | – | – | –
Nc1ncnc2c(C3OC(CO)C(O)C3O)scc12 (stereo not drawn) | 0.03 | – | 2.02 µM and 3.02 µM | 4.56 | 24.4 µM | 0.026 µM | 33.3 µM | 0.548 µM and 0.31 µM | 0.00946 | 0.217 µM and 0.277 µM | – | 0.12 | – | 4.35 | – | 1.41 µM | – | – | – | –
CC(=O)OCC1OC(n2c(=O)n(-c3ccccc3)c(=O)c3cc(Br)cc(Br)c32)C(OC(C)=O)C(OC(C)=O)C1OC(C)=O (stereo not drawn) | > 100 | > 100 µM | > 100 µM | > 100 | > 100 µM | > 100 µM | > 100 µM | > 100 µM | > 100 | > 100 µM | – | – | – | – | – | – | – | – | – | –
CCCCCCCCCC1C(C)c2c([nH]c3ccccc23)C2C(=O)N(c3ccccc3)C(=O)C21 (stereo not drawn) | 15.9 | 33.1 µM | 31.2 µM | 26.8 | > 100 µM | 16.2 µM | – | 28.4 µM | 13.4 | 28.7 µM | – | – | – | – | – | – | – | – | – | –
COc1c(NC(=O)CC(C)=O)[c]([Hg][O]C(C)=O)c(OC)c(Cl)[c]1[Hg][O]C(C)=O | 41.1 | 22.9 µM | 36.6 µM | 29.7 | 16.8 µM | 26.7 µM | 28.5 µM | 13.5 µM | – | 25.7 µM | 8.46 | 20.2 | 16.2 | 5.17 | 13.8 | 12.8 µM | 13 | – | 11 | 1.61
CNNC(=N\S(=O)(=O)c1cc(C(=O)Nc2ccc(Cl)cc2)c(Cl)cc1SCc1ccccc1)/N=C/c1ccc([N+](=O)[O-])s1 | > 100 | > 100 µM | > 100 µM | > 100 | > 100 µM | > 100 µM | > 100 µM | – | > 100 | > 100 µM | 15.9 | > 36 | > 100 | > 100 | > 100 | > 100 µM | 10.1 | > 100 | > 100 | –
N#CCN1CCOCCOCCN(CC#N)CCOCCOCC1 | > 100 | > 100 µM | > 100 µM | > 100 | > 100 µM | – | > 100 µM | > 100 µM | > 100 | > 100 µM | – | – | – | – | – | – | – | – | – | –
Cc1c(C(=O)/C=C/c2ccccc2Cl)[n+](=O)c2ccccc2n1[O-] | 26.5 | – | 34.2 µM | 33.2 | 29.2 µM | 27.3 µM | – | 20.1 µM | 62.8 | 29 µM | – | – | – | – | – | – | – | – | – | –
COC(=O)c1ccc2c(c1)C(=O)c1c-2n(CCCN)c(=O)c2cc([N+](=O)[O-])ccc12 | 2.02 | 0.398 µM | 0.532 µM | < 0.0405 | 1.36 µM | 0.94 µM | 1.4 µM | – | 1.39 | 0.46 µM | 0.0206 | < 0.0161 | < 0.0137 | 0.038 | 0.0675 | < 0.0177 µM | < 0.0222 | < 0.0194 | < 0.0254 | –
Nc1c(C(=O)c2cccc(CCC3(O)CCCC3)c2)cnn1-c1ccc(F)cc1 | > 25 | > 25 µM | > 25 µM | > 25 | > 25 µM | > 25 µM | > 25 µM | – | > 25 | > 25 µM | 10.1 | > 25 | 8.21 | 7.88 | 17.1 | > 18.5 µM | 14.9 | 16.2 | 12.5 | –
